What all share (assay type): biochemical, Variovorax paradoxus
In assay [1] the test system is D-amidase. Briefly: Enzyme test for N-formylated amino acid amides, NH4+ determination with glutamate dehydrogenase. The procedure: The cleavage of racemic N-formylated amino acid amides was investigated by using the D-amidase according to the invention. The enzyme used was a partly purified D-amidase after the 1st chromatography step. The activity was measured by determining the NH4^+ ions with glutamate dehydrogenase (Bergmeyer, H. U., and Beutler, H.-O. (1985), Ammonia. In: Methods of Enzymatic Analysis. VCH-Verlag, 3rd edition, vol. 8: 454-461, Weinheim). The following substrates were employed in the enzyme test at 10 mM. The enzyme glutamate dehydrogenase (GluDH; E.C.1.4.1.3) converts 2-oxoglutarate into L-glutamate, ammonium ions being consumed and NADH being oxidized to NAD+(Bergmeyer, H.,U. and Beutler, H.-O. (1985), Ammonia. In: Methods of Enzymatic Analysis. VCH-Verlag, 3rd edition, vol. 8: 454-461, Weinheim). The amount of NADH consumed during the reaction is equivalent to the amount of ammonium ions. The change in the concentration of NADH is the measurement parameter and can be determined spectrophotometrically at a wavelength of 340 nm.

The test system of assay [2] is D-amidase. The assay can be described thus: Kinetic cleavage of racemic amino acid amides: enantioselectivity as a function of the conversion. Here is the method:
To evaluate the suitability for kinetic cleavage of racemic DL-Tle-NH2, the enantioselectivity was determined as a function of the conversion.
DL-Valin-, DL-leucin- and DL-phenylalaninamide were alos tested in this respect. For this, the enantioselectivity was determined as function of the conversion with partly purified enzyme from Variovorax paradoxus 19-3 after the 1st chromatography step.
(§1) The separation and quantitative determination of the enantiomers D- and L-tert-leucine were carried out by a “chiral derivatization” on the basis of o-phthaldialdehyde (OPA)/N-isobutyryl-L-cysteine or N-isobutyryl-D-cysteine (Brückner, H.; Wittner R. and Godel H. (1991), Fully automated high-performance liquid chromatographic separation of DL-amino acids derivatized with o-Phthaldialdehyde together with N-isopropyl-cysteine. Application to food samples. Anal. Biochem. 144, 204-206). The diastereomeric isoindole derivatives formed were separated on an RP-18 (reversed phase) column and detected by fluorescence. A two-buffer system of aqueous acetate buffer and an acetonitrile/water mixture was used as the mobile phase.

Assay [3] has as its system D-amidase. The assay can be described thus: Specific activity of crude extracts and purified D-amidase for DL-Tle-NH2. Particulars: DL-Tle-NH2 as the substrate. Here is the method: (§2) In the conversion of tert-leucinamide (gen. acid amides) by the D-amidase, the formation of ammonia or ammonium ions and tert-leucine (gen. acid) in equimolar amounts occurs. […] The change in concentration of the components participating can be measured in an enzyme test, which comprises incubation of the following test batch for 10-60 minutes at 30° C.
(§3) The enzyme test was started by addition of the substrate and the reaction was stopped by heating at 95° C. for three minutes. The analysis of the reaction products was carried out for ammonium ions by enzymatic determination of ammonium by glutamate dehydrogenase (Bergmeyer, H.,U., and Beutler, H.-O. (1985) Ammonia. In: Methods of Enzymatic Analysis. VCH-Verlag, 3rd edition, vol. 8: 454-461, Weinheim) and for D- and L-tert-leucine by means of HPLC (Bruckner, H., Wittner R., and Godel H., (1991) Fully automated high-performance liquid chromatographic separation of DL-amino acids derivatized with o-phthaldialdehyde together with N-isopropyl-cysteine. Application to food samples. Anal. Biochem. 144(1): 204-206). Batches to which no substrate were added served as controls.

The test system of assay [4] is D-amidase. Briefly: Enzyme test for acid amides, activity by determination of ammonium ions with glutamate dehydrogenase. Particulars: substrate 40 mM; for Activity with respect to Tle-NH2: DL-Tle-NH2 = 1; for Relative act.: partly purified D-amidase after the 2nd chromatography step (0.51 U/mg). The procedure:
The activity was measured by determination of the ammonium ions with glutamate dehydrogenase (Bergmeyer, H. U., and Beutler, H.-O. (1985), Ammonia. In: Methods of Enzymatic Analysis. VCH-Verlag, 3rd edition, vol. 8: 454-461, Weinheim). […] The substrates were employed in the enzyme test at 40 mM, except for succinic acid diamide and adipic acid diamide, each at 10 mM, and benzylamide at 20 mM. Since the activities were determined only at in each case one substrate concentration, relative activities are stated.
as §2, §3
The enzyme glutamate dehydrogenase (GluDH; E.C.1.4.1.3) converts 2-oxoglutarate into L-glutamate, ammonium ions being consumed and NADH being oxidized to NAD+(Bergmeyer, H.,U. and Beutler, H.-O. (1985), Ammonia. In: Methods of Enzymatic Analysis. VCH-Verlag, 3rd edition, vol. 8: 454-461, Weinheim). The amount of NADH consumed during the reaction is equivalent to the amount of ammonium ions. The change in the concentration of NADH is the measurement parameter and can be determined spectrophotometrically at a wavelength of 340 nm.
The test components were pipetted into cells of plastic (1.5 ml semimicro disposable cells, Brand) and mixed and the extinction at 340 nm was determined after 5 min. 10 μl GluDH were then added, and after the reaction had gone to completion, as a rule after 30 min, the extinction was measured again.

For assay [5], the system named is D-amidase. The assay can be described thus: Enzyme test for amino acid amides and α-hydroxycarboxylic acid amides (HPLC or NH4+ determination). Particulars: substrate 40 mM. The procedure: For prolinamide, and the α-hydroxycarboxylic acid amides lactic acid amide (Lac-NH2) and 2-hydroxy-4-methylmercaptobutyric acid amid (MHA-NH2), the methionine-analogous α-hydroxycarboxylic acid amide, determination of the product with the previous HPLC analysis is not possible. For these substrates, the activity was determined with the aid of NH4^+ determination. […] All the substrates were employed in the enzyme test at 40 mM. In the 4th column, for further comparison the activity for the lower enantiomer has been set at 1 and a relative activity for the preferred enantiomer has been calculated therefrom.
as §2, §3, §1

For `CC(C)[C@H](N)C(N)=O` (racemic) [DL-Val-NH2, valinamide], the “Activity with respect to Tle-NH2” value in assay [1] (Table 5, DL-Val-NH2 = 100) was found to be 100%. In assay [1] (Table 5, comparison of valinamide and N-formyl-valinamide), this molecule gave a Relative act. of 870 mU/mg. Also, the E value in assay [2] (conversion 3%) was 190; in assay [2] (conversion 15%) it was 180; in assay [2] (conversion 29%), 200; in assay [2] (conversion 42%), 220; in assay [2] (conversion 50%), 140; in assay [2] (conversion 57%), 56. The “ee D-Val” value in assay [2] (conversion 3%, partly purified enzyme after the 1st chromatography step) is on record as 98.9%; in assay [2] (conversion 15%, partly purified enzyme after the 1st chromatography step), 98.7%; in assay [2] (conversion 29%, partly purified enzyme after the 1st chromatography step), 98.5%; in assay [2] (conversion 42%, partly purified enzyme after the 1st chromatography step), 98.1%; in assay [2] (conversion 50%, partly purified enzyme after the 1st chromatography step), 95.1%; in assay [2] (conversion 57%, partly purified enzyme after the 1st chromatography step) it was 75.0%.

As to `CC(C)(C)C(N)C(N)=O` (racemic) [DL-Tle-NH2, D,L-tert-Leucinamide], the “Activity with respect to Tle-NH2” value was 100% in assay [1] (Table 4, DL-Tle-NH2 = 100); 1 in assay [4]; 1 in assay [5] (DL-Tle-NH2 = 1). Also, the Relative act. in assay [1] (Table 4, substrate 10 mM, partly purified D-amidase after the 1st chromatography step) is recorded as 200 mU/mg; in assay [4], 0.51 U/mg. The Specific activity in assay [3] (D-amidase after the first two purification steps) was 0.68 U/mg; in assay [3] (crude extract of E. coli JM 101 expression clones) it was 80-210 mU/mg; in assay [3] (homogeneously purified D-amidase from Variovorax paradoxus) it was 1.4 U/mg; in assay [5] (partly purified D-amidase after the 2nd chromatography step (0.56 U/mg), Pro-, Lac-, MHA-NH2 by NH4+ determination), 0.56 U/mg. The E value entry in assay [2] (both series of experiments (partly purified and virtually homogeneous enzyme)) is reported as “greater than 100”. For the same molecule, in assay [2] (partly purified enzyme after the 1st chromatography step, conversion of greater than 45%), the “enantioselectivity with respect to D-Tle” value was 96.6%.

As to `NC(=O)c1cccnc1` [Nicotinamide], in assay [4], the “Activity with respect to Tle-NH2” value was 19 and the Relative act. worked out at 8.5 U/mg.

As to `CCC(N)=O` [Propionamide], in assay [4], the “Activity with respect to Tle-NH2” value is listed as 26 and the Relative act. was found to be 12 U/mg.
